# Assay results as given in ChEMBL document CHEMBL6153041, “Discovery of High-Affinity SMARCA2/4 Bromodomain Ligands and Development of Potent and Exceptionally Selective SMARCA2 PROTAC Degraders” (J Med Chem, 2025).
# Tests used:
# [1] = target: T1, von Hippel-Lindau disease tumor suppressor/SWI/SNF-related matrix-associated actin-dependent regulator of chromatin subfamily A member 2 (Homo sapiens, UniProt P51531+P40337); assay: PROTAC activity at VHL1/SMARCA2 in human genetically modified Hela cells assessed as degradation measured after 8 hrs incubation by Nano-Glo HiBiT Lytic Detection Assay; assay type: cell-based
# [2] = Anticancer activity against SMARCA4 deficient human NCI-H838 cells assessed as maximal inhibition of cell growth measured after 7 days incubation by WST-8 assay relative to control; assay type: functional; settings: time 7 day
# [3] = target: T1, von Hippel-Lindau disease tumor suppressor/SWI/SNF-related matrix-associated actin-dependent regulator of chromatin subfamily A member 2; assay: PROTAC activity at VHL1/SMARCA2 in human genetically modified Hela cells assessed as maximal degradation measured after 48 hrs incubation by Nano-Glo HiBiT Lytic Detection Assay relative to control; assay type: cell-based
# Target sequence in this assay (P40337 whole entry, looked up): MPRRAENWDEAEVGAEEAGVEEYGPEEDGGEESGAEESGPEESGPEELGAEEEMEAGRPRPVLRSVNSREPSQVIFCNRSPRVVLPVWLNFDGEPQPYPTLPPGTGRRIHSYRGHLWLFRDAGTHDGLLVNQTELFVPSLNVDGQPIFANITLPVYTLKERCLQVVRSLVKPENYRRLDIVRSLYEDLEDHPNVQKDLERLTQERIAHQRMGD
# Target sequence in this assay (P51531 whole entry, looked up): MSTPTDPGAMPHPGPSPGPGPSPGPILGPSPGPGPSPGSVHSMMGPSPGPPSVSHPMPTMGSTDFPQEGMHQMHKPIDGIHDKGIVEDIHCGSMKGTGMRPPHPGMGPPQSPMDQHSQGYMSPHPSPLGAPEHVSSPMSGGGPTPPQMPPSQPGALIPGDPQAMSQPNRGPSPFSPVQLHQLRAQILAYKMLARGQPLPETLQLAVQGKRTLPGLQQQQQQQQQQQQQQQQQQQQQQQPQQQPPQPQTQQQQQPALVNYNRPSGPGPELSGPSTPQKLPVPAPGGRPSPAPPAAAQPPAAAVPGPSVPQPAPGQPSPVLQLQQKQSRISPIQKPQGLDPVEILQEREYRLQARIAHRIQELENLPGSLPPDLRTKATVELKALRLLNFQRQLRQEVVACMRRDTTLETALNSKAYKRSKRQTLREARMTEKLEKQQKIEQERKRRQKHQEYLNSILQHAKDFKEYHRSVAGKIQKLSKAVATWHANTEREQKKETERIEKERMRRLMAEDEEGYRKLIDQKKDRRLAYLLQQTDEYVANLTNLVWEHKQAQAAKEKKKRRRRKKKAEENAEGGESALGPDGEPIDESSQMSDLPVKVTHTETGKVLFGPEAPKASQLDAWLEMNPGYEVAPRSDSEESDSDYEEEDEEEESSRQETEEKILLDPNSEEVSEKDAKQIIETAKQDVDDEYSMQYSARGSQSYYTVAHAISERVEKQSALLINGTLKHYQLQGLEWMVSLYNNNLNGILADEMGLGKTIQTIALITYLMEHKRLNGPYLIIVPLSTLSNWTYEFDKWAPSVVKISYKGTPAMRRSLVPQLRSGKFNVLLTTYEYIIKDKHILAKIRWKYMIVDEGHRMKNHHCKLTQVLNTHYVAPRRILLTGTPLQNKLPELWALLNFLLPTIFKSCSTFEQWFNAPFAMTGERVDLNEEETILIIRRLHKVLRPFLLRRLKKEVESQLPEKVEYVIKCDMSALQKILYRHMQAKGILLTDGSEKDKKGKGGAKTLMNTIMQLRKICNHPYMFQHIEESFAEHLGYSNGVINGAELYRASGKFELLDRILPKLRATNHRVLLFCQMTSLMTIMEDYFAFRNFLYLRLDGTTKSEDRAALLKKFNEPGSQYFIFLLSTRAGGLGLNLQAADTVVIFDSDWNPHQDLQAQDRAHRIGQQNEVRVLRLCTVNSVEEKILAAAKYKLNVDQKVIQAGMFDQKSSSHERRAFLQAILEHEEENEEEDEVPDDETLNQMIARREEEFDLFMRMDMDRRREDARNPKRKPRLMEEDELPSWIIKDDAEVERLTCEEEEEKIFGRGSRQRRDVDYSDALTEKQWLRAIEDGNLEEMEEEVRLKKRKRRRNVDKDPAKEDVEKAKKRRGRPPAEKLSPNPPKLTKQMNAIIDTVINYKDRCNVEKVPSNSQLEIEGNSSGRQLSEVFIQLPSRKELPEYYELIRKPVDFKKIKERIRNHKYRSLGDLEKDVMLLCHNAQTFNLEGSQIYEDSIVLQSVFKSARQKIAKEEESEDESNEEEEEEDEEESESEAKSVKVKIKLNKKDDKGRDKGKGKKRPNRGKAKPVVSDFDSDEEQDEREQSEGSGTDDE
# [4] = target: T2, von Hippel-Lindau disease tumor suppressor/SWI/SNF-related matrix-associated actin-dependent regulator of chromatin subfamily A member 4 (Homo sapiens, UniProt P51532+P40337); assay: PROTAC activity at VHL1/SMARCA4 in human NCI-H1792 cells assessed as degradation measured after 24 hrs incubation by Western blot analysis; assay type: cell-based
# Target sequence in this assay (P51532 whole entry): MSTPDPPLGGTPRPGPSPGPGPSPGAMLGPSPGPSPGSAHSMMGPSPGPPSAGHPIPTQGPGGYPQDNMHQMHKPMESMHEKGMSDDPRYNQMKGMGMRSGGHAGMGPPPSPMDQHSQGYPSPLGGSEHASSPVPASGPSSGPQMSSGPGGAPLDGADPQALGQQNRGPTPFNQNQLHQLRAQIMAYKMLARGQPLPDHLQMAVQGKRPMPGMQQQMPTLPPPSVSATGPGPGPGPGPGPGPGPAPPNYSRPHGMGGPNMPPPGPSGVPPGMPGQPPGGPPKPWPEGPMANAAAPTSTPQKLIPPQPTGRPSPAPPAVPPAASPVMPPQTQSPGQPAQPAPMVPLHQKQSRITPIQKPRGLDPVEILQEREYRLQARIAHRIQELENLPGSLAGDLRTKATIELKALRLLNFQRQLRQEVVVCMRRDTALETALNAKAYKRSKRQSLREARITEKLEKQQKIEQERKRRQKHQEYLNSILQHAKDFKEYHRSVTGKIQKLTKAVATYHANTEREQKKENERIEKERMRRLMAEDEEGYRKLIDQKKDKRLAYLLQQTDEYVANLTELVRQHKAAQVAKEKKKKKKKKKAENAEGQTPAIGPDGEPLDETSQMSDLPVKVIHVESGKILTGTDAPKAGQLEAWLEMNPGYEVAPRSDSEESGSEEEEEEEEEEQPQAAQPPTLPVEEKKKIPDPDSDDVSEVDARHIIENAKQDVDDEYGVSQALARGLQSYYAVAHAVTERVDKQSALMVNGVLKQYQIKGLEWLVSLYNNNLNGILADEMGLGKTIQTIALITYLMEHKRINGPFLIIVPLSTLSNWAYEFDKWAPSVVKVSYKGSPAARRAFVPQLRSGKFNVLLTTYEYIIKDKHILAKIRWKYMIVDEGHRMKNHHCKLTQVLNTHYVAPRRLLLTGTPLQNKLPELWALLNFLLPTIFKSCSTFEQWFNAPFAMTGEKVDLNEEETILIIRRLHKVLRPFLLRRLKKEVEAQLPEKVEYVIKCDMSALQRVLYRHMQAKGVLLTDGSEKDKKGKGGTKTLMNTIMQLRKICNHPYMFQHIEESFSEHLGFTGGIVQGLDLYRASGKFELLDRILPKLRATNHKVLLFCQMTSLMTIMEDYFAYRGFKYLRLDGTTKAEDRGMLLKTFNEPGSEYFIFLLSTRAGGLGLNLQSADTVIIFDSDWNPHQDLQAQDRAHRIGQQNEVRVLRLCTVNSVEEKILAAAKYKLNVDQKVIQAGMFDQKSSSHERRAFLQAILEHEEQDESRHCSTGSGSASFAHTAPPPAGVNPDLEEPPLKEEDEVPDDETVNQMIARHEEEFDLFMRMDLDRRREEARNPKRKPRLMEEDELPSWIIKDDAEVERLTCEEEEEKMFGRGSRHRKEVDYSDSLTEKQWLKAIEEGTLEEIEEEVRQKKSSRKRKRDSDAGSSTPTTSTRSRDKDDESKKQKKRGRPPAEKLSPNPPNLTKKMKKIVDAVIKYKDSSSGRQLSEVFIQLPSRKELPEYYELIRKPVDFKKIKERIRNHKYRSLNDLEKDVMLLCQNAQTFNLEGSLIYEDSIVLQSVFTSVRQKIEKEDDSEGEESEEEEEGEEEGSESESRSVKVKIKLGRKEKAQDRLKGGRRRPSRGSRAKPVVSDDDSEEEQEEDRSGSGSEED
# Target sequence in this assay (P40337 whole entry): as the sequence (P40337 whole entry, looked up) above
# [5] = target: T2, von Hippel-Lindau disease tumor suppressor/SWI/SNF-related matrix-associated actin-dependent regulator of chromatin subfamily A member 4; assay: PROTAC activity at VHL1/SMARCA4 mutant in human SK-MEL-5 cells assessed as degradation measured after 24 hrs incubation by Western blot analysis; assay type: cell-based
# [6] = test system: HeLa; assay: Selectivity ratio, ratio of DC50 for VHL1/SMARCA4 in human genetically modified Hela cells to VHL1/SMARCA2 in human genetically modified Hela cells; assay type: cell-based
# [7] = target: T2, von Hippel-Lindau disease tumor suppressor/SWI/SNF-related matrix-associated actin-dependent regulator of chromatin subfamily A member 4; assay: PROTAC activity at VHL1/SMARCA4 in human genetically modified Hela cells assessed as maximal degradation measured after 4 hrs incubation by Nano-Glo HiBiT Lytic Detection Assay relative to control; assay type: cell-based
# [8] = test system: SK-MEL-5; assay: Anticancer activity against SMARCA4 deficient human SK-MEL-5 cells assessed as maximal inhibition of cell growth measured after 7 days incubation by WST-8 assay relative to control; assay type: functional; settings: time 7 day
# [9] = target: T2, von Hippel-Lindau disease tumor suppressor/SWI/SNF-related matrix-associated actin-dependent regulator of chromatin subfamily A member 4; assay: PROTAC activity at VHL1/SMARCA4 in human NCI-H1792 cells assessed as maximal degradation measured after 24 hrs incubation by Western blot analysis relative to control; assay type: cell-based
# [10] = target: T1, von Hippel-Lindau disease tumor suppressor/SWI/SNF-related matrix-associated actin-dependent regulator of chromatin subfamily A member 2; assay: PROTAC activity at VHL1/SMARCA2 in human NCI-H1792 cells assessed as degradation measured after 24 hrs incubation by Western blot analysis; assay type: cell-based
# [11] = target: T1, von Hippel-Lindau disease tumor suppressor/SWI/SNF-related matrix-associated actin-dependent regulator of chromatin subfamily A member 2; assay: PROTAC activity at VHL1/SMARCA2 in human genetically modified Hela cells assessed as degradation measured after 48 hrs incubation by Nano-Glo HiBiT Lytic Detection Assay; assay type: cell-based
# [12] = target: T2, von Hippel-Lindau disease tumor suppressor/SWI/SNF-related matrix-associated actin-dependent regulator of chromatin subfamily A member 4; assay: PROTAC activity at VHL1/SMARCA4 in human genetically modified Hela cells assessed as degradation measured after 4 hrs incubation by Nano-Glo HiBiT Lytic Detection Assay; assay type: cell-based
# Target sequence in this assay (P51532 whole entry): as the sequence (P51532 whole entry) above
# Target sequence in this assay (P40337 whole entry): as the sequence (P40337 whole entry, looked up) above
# [13] = target: T2, von Hippel-Lindau disease tumor suppressor/SWI/SNF-related matrix-associated actin-dependent regulator of chromatin subfamily A member 4; assay: PROTAC activity at VHL1/SMARCA4 in human genetically modified Hela cells assessed as maximal degradation measured after 8 hrs incubation by Nano-Glo HiBiT Lytic Detection Assay relative to control; assay type: cell-based
# [14] = test system: NCI-H1792; assay: Anticancer activity against human NCI-H1792 cells harbouring wild type SMARCA4 assessed as inhibition of cell growth measured after 7 days incubation by WST-8 assay; assay type: functional; settings: NCI-H1792, 168 h, time 7 day
# [15] = target: T2, von Hippel-Lindau disease tumor suppressor/SWI/SNF-related matrix-associated actin-dependent regulator of chromatin subfamily A member 4; assay: PROTAC activity at VHL1/SMARCA4 in human genetically modified Hela cells assessed as maximal degradation measured after 24 hrs incubation by Nano-Glo HiBiT Lytic Detection Assay relative to control; assay type: cell-based
# [16] = target: T2, von Hippel-Lindau disease tumor suppressor/SWI/SNF-related matrix-associated actin-dependent regulator of chromatin subfamily A member 4; assay: PROTAC activity at VHL1/SMARCA4 in human genetically modified Hela cells assessed as degradation measured after 24 hrs incubation by Nano-Glo HiBiT Lytic Detection Assay; assay type: cell-based
# Target sequence in this assay (P51532 whole entry): as the sequence (P51532 whole entry) above
# Target sequence in this assay (P40337 whole entry): as the sequence (P40337 whole entry, looked up) above
# [17] = target: T2, von Hippel-Lindau disease tumor suppressor/SWI/SNF-related matrix-associated actin-dependent regulator of chromatin subfamily A member 4; assay: PROTAC activity at VHL1/SMARCA4 in human genetically modified Hela cells assessed as degradation measured after 48 hrs incubation by Nano-Glo HiBiT Lytic Detection Assay; assay type: cell-based
# Target sequence in this assay (P51532 whole entry): as the sequence (P51532 whole entry) above
# Target sequence in this assay (P40337 whole entry): as the sequence (P40337 whole entry, looked up) above
# [18] = target: T1, von Hippel-Lindau disease tumor suppressor/SWI/SNF-related matrix-associated actin-dependent regulator of chromatin subfamily A member 2; assay: PROTAC activity at VHL1/SMARCA2 in human genetically modified Hela cells assessed as maximal degradation measured after 8 hrs incubation by Nano-Glo HiBiT Lytic Detection Assay relative to control; assay type: cell-based
# Target sequence in this assay (P40337 whole entry, looked up): as above
# Target sequence in this assay (P51531 whole entry, looked up): as the sequence (P51531 whole entry, looked up) above
# [19] = test system: SK-MEL-28; assay: Anticancer activity against human SK-MEL-28 cells harbouring wild type SMARCA4 assessed as maximal inhibition of cell growth measured after 7 days incubation by WST-8 assay relative to control; assay type: functional; settings: time 7 day
# [20] = target: T1, von Hippel-Lindau disease tumor suppressor/SWI/SNF-related matrix-associated actin-dependent regulator of chromatin subfamily A member 2; assay: PROTAC activity at VHL1/SMARCA2 in human genetically modified Hela cells assessed as degradation measured after 4 hrs incubation by Nano-Glo HiBiT Lytic Detection Assay; assay type: cell-based
# [21] = test system: von Hippel-Lindau disease tumor suppressor/SWI/SNF-related matrix-associated actin-dependent regulator of chromatin subfamily A member 4 (Homo sapiens), P51532+P40337 [UNDEFINED MUTATION]; assay: PROTAC activity at VHL1/SMARCA4 mutant in human NCI-H838 cells assessed as maximal degradation measured after 24 hrs incubation by Western blot analysis relative to control; assay type: cell-based
# [22] = Anticancer activity against SMARCA4 deficient human NCI-H838 cells assessed as inhibition of cell growth measured after 7 days incubation by WST-8 assay; assay type: functional; settings: NCI-H838, 168 h, time 7 day
# [23] = target: T2, von Hippel-Lindau disease tumor suppressor/SWI/SNF-related matrix-associated actin-dependent regulator of chromatin subfamily A member 4; assay: PROTAC activity at VHL1/SMARCA4 in human genetically modified Hela cells assessed as maximal degradation measured after 48 hrs incubation by Nano-Glo HiBiT Lytic Detection Assay relative to control; assay type: cell-based
# [24] = test system: NCI-H1792; assay: Anticancer activity against human NCI-H1792 cells harbouring wild type SMARCA4 assessed as maximal inhibition of cell growth measured after 7 days incubation by WST-8 assay relative to control; assay type: functional; settings: time 7 day
# [25] = target: T2, von Hippel-Lindau disease tumor suppressor/SWI/SNF-related matrix-associated actin-dependent regulator of chromatin subfamily A member 4; assay: PROTAC activity at VHL1/SMARCA4 in human genetically modified Hela cells assessed as degradation measured after 8 hrs incubation by Nano-Glo HiBiT Lytic Detection Assay; assay type: cell-based
# Target sequence in this assay (P51532 whole entry): as the sequence (P51532 whole entry) above
# Target sequence in this assay (P40337 whole entry): as the sequence (P40337 whole entry, looked up) above
# [26] = test system: SK-MEL-28; assay: Anticancer activity against human SK-MEL-28 cells harbouring wild type SMARCA4 assessed as inhibition of cell growth measured after 7 days incubation by WST-8 assay; assay type: functional; settings: SK-MEL-28, 168 h, time 7 day
# [27] = target: T1, von Hippel-Lindau disease tumor suppressor/SWI/SNF-related matrix-associated actin-dependent regulator of chromatin subfamily A member 2; assay: PROTAC activity at VHL1/SMARCA2 in human genetically modified Hela cells assessed as maximal degradation measured after 24 hrs incubation by Nano-Glo HiBiT Lytic Detection Assay relative to control; assay type: cell-based
# Target sequence in this assay (P40337 whole entry, looked up): as above
# Target sequence in this assay (P51531 whole entry, looked up): as the sequence (P51531 whole entry, looked up) above
# [28] = test system: von Hippel-Lindau disease tumor suppressor/SWI/SNF-related matrix-associated actin-dependent regulator of chromatin subfamily A member 4 (Homo sapiens), P51532+P40337 [UNDEFINED MUTATION]; assay: PROTAC activity at VHL1/SMARCA4 mutant in human SK-MEL-5 cells assessed as maximal degradation measured after 24 hrs incubation by Western blot analysis relative to control; assay type: cell-based
# [29] = test system: SK-MEL-5; assay: Anticancer activity against SMARCA4 deficient human SK-MEL-5 cells assessed as inhibition of cell growth measured after 7 days incubation by WST-8 assay; assay type: functional; settings: SK-MEL-5, 168 h, time 7 day
# [30] = target: T1, von Hippel-Lindau disease tumor suppressor/SWI/SNF-related matrix-associated actin-dependent regulator of chromatin subfamily A member 2; assay: PROTAC activity at VHL1/SMARCA2 in human NCI-H1792 cells assessed as maximal degradation measured after 24 hrs incubation by Western blot analysis relative to control; assay type: cell-based
# Target sequence in this assay (P40337 whole entry, looked up): as the sequence (P40337 whole entry, looked up) above
# Target sequence in this assay (P51531 whole entry, looked up): as the sequence (P51531 whole entry, looked up) above
# [31] = target: T1, von Hippel-Lindau disease tumor suppressor/SWI/SNF-related matrix-associated actin-dependent regulator of chromatin subfamily A member 2; assay: PROTAC activity at VHL1/SMARCA2 in human genetically modified Hela cells assessed as maximal degradation measured after 4 hrs incubation by Nano-Glo HiBiT Lytic Detection Assay relative to control; assay type: cell-based
# Target sequence in this assay (P40337 whole entry, looked up): as the sequence (P40337 whole entry, looked up) above
# Target sequence in this assay (P51531 whole entry, looked up): as the sequence (P51531 whole entry, looked up) above
# [32] = target: T2, von Hippel-Lindau disease tumor suppressor/SWI/SNF-related matrix-associated actin-dependent regulator of chromatin subfamily A member 4; assay: PROTAC activity at VHL1/SMARCA4 mutant in human NCI-H838 cells assessed as degradation measured after 24 hrs incubation by Western blot analysis; assay type: cell-based
# [33] = target: T1, von Hippel-Lindau disease tumor suppressor/SWI/SNF-related matrix-associated actin-dependent regulator of chromatin subfamily A member 2; assay: PROTAC activity at VHL1/SMARCA2 in human genetically modified Hela cells assessed as degradation measured after 24 hrs incubation by Nano-Glo HiBiT Lytic Detection Assay; assay type: cell-based
# [34] = target: T3, Protein cereblon/SWI/SNF-related matrix-associated actin-dependent regulator of chromatin subfamily A member 4 (Homo sapiens) (UniProt P51532+Q96SW2); assay: PROTAC activity at CRBN/SMARCA4 in human RKO cells assessed as maximal degradation measured after 24 hrs by Western blot analysis relative to control; assay type: cell-based
# [35] = target: T4, Protein cereblon/SWI/SNF-related matrix-associated actin-dependent regulator of chromatin subfamily A member 2 (Homo sapiens, UniProt P51531+Q96SW2); assay: PROTAC activity at CRBN/SMARCA2 in human RKO cells assessed as degradation measured after 24 hrs by Western blot analysis; assay type: cell-based
# [36] = target: T4, Protein cereblon/SWI/SNF-related matrix-associated actin-dependent regulator of chromatin subfamily A member 2; assay: PROTAC activity at CRBN/SMARCA2 in human RKO cells assessed as maximal degradation measured after 24 hrs by Western blot analysis relative to control; assay type: cell-based
# [37] = target: T3, Protein cereblon/SWI/SNF-related matrix-associated actin-dependent regulator of chromatin subfamily A member 4 (Homo sapiens); assay: PROTAC activity at CRBN/SMARCA4 in human RKO cells assessed as degradation measured after 24 hrs by Western blot analysis; assay type: cell-based
SMILES,DC50 [1] [nM],Imax [2] [%],Emax [3] [%],DC50 [4] [nM],DC50 [5] [nM],Ratio [6],Emax [7] [%],Imax [8] [%],Emax [9] [%],DC50 [10] [nM],DC50 [11] [nM],DC50 [12] [nM],Emax [13] [%],GI50 [14] [nM],Emax [15] [%],DC50 [16] [nM],DC50 [17] [nM],Emax [18] [%],Imax [19] [%],Emax [27] [%],also measured
Cc1ncsc1-c1ccc([C@H](C)NC(=O)[C@@H]2C[C@@H](O)CN2C(=O)[C@@H](NC(=O)[C@H]2CC[C@H](CN3CCC(c4ccc5c(c4)-n4c(nc(=O)c6c(Cl)cccc64)C54CCCCC4)CC3)CC2)C(C)(C)C)cc1,89,79,91,> 1000,81.1,> 1250,< 10,93,< 30,54.2,44,> 1000,< 10,> 1000,20,> 10000,> 1000,85,0,89,DC50 [20]: 142 nM; Emax [21]: < 89%; GI50 [22]: 142 nM; Emax [23]: < 10%; Imax [24]: 0%; DC50 [25]: > 1000 nM; GI50 [26]: > 1000 nM; Emax [28]: 87%; GI50 [29]: > 22.3 nM; Emax [30]: 87%; Emax [31]: 76%; DC50 [32]: 76.2 nM
Cc1ncsc1-c1ccc([C@H](CCCCCN2CCC(c3ccc4c(c3)C3(CCCCC3)c3nc(=O)c5c(Cl)cccc5n3-4)CC2)NC(=O)[C@@H]2C[C@@H](O)CN2C(=O)[C@@H](NC(=O)C2(F)CC2)C(C)(C)C)cc1,6,92,99,26,81.1,8,96,96,99,1.7,4,38,96,10.5,96,3.3,27,97,91,97,DC50 [33]: 0.4 nM; DC50 [20]: 10 nM; Emax [21]: 89%; GI50 [22]: 10.5 nM; Emax [23]: 98%; Imax [24]: 52%; DC50 [25]: 27 nM; GI50 [26]: 24.8 nM; Emax [28]: 87%; GI50 [29]: 1.1 nM; Emax [30]: 99%; Emax [31]: 97%; DC50 [32]: 76.2 nM
Cc1ncsc1-c1ccc([C@H](CC[C@H](C)CCN2CCC(c3ccc4c(c3)n(C3CCCC3)c3nc(=O)c5c(Br)cccc5n43)CC2)NC(=O)[C@@H]2C[C@@H](O)CN2C(=O)[C@@H](NC(=O)C2(F)CC2)C(C)(C)C)cc1,–,–,–,–,–,12,–,–,–,–,–,–,–,–,86,33,–,–,–,93,Emax [34]: 67%; DC50 [35]: 1 nM; DC50 [36]: 32 nM; DC50 [33]: 2.3 nM; Emax [37]: 81%
